Measurements: paper PMC10540216, “Activity Guided Azide-methyllysine Photo-trapping for Substrate Profiling of Lysine Demethylases” (Journal of the American Chemical Society, 2023)
Entries after “also recorded” stand apart in the source; their conditions may differ. Where no end group is shown, it is not given here. [ ]: non-standard residue; d: D form. Lys(Me3) = C[N+](C)(C)CCCC[C@H](N)C(=O)O

Test system: KDM4A-E
Test: Demethylase activity of KDM4 subfamily on peptide substrates (MALDI-TOF MS), result worded for KDM4A-E together
Assay type: biochemical, human
Details: wild-type KDM4A-E, 10 µM enzyme, 10 µM peptide, 1 mM 2OG, 50 mM Tris pH 8, 37°C, three hours

| Substance | demethylation by KDM4A-E |
| --- | --- |
| AEVTRTAR[Lys(Me3)]QSAQKRVL [compound 16, Nup107-K25me3 peptide] | demethylated by multiple KDM4s; also recorded: robust demethylation |
| ALMLENLQ[Lys(Me3)]HSTPHAAF [compound 9, ACINUS-K113me3 peptide] | failed to undergo demethylation by KDM4A-E |
| FNRMPIAR[Lys(Me3)]IIKDGEQH [compound 8, AIFM1-K590me3 peptide] | failed to undergo demethylation; also recorded: not recognized as KDM4 substrates |
| GGATSSAR[Lys(Me3)]NRWDEPTK [compound 12, SF3B1-K290me3 peptide] | failed to undergo demethylation; also recorded: not recognized as KDM4 substrates |
| KGPDEAKI[Lys(Me3)]ALLERTGY [compound 11, hnRNPQ-K125me3 peptide] | failed to undergo demethylation by KDM4A-E; also recorded: not recognized as KDM4 substrates |
| MPSASASR[Lys(Me3)]SQEKPREI [compound 14, SYDC-K9me3 peptide] | not recognized as KDM4 substrates |
| RSASSNSR[Lys(Me3)]SLSPGVSR [compound 10, Acinus-K654me3 peptide] | demethylated by multiple KDM4s; also recorded: robust demethylation |
| SRAHSSHLKme3SKKGQSTS [compound 18, P53-K370me3 peptide] | failed to undergo demethylation by KDM4A-E |
| WENTLHTL[Lys(Me3)]QRQLTSYV [compound 17, NUP107-K305me3 peptide] | failed to undergo demethylation by KDM4A-E |

Test system: KDM4A-I71AzF
Test: CASI: photo-crosslinking with HEK293T cell extracts, StrepTactin enrichment and LC-MS/MS proteomics;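 further: lysates from HEK293T cells pretreated with a KDM4 inhibitor to raise proteome methylation, affinity-purified after ±UV, gel-resolved, trypsin-digested, with exclusive unique peptides per protein averaged per condition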
Assay type: binding, human
Details: sheet "Final results but with 0.01"

| Substance | Fold change (+UV/-UV) |
| --- | --- |
| ATPB_HUMAN | 0.5789 |
| BRE1A_HUMAN | 0.1667 |
| BRE1B_HUMAN | 0.25 |
| CCAR2_HUMAN | 0.75 |
| CHD4_HUMAN | 0.3333 |
| CLH1_HUMAN | 1 |
| CLPX_HUMAN | 1.5 |
| CMC2_HUMAN | 0.5 |
| COR1C_HUMAN | 0 |
| DESP_HUMAN | 0.2222 |
| DHE3_HUMAN | 1.727 |
| DHSA_HUMAN | 1 |
| DHX9_HUMAN | 0.7895 |
| DNMT1_HUMAN | 0 |
| DOCK7_HUMAN | 0.8 |
| ECHA_HUMAN | 1 |
| ENPL_HUMAN | 1.25 |
| ESYT1_HUMAN | 1 |
| FAS_HUMAN | 0.3889 |
| FILA2_HUMAN | 0.75 |
| FLNA_HUMAN | 0.3571 |
| FTO_HUMAN | 1 |

| Substance | Fold change (+UV/-UV) |
| --- | --- |
| G3BP1_HUMAN | 0 |
| G3P_HUMAN | 0.5 |
| GRP75_HUMAN | 0.7931 |
| GRP78_HUMAN | 0.5556 |
| GUAA_HUMAN | 0.6364 |
| H12_HUMAN | 700 |
| HEAT1_HUMAN | 0 |
| HNRPK_HUMAN | 1.273 |
| HNRPU_HUMAN | 0.6 |
| HORN_HUMAN | 0 |
| HS90B_HUMAN | 0.75 |
| HSP7C_HUMAN | 0.7407 |
| HSP71_HUMAN | 0.6154 |
| I2BP2_HUMAN | 0.3333 |
| IF4A1_HUMAN | 200 |
| IF4G1_HUMAN | 0 |
| INT3_HUMAN | 2 |
| K2C4_HUMAN | 10 |
| KCRU_HUMAN | 200 |
| KPYM_HUMAN | 1.667 |
| KRT82_HUMAN | 200 |
| LAMP2_HUMAN | 2 |

| Substance | Fold change (+UV/-UV) |
| --- | --- |
| MAOM_HUMAN | 1.714 |
| MCM7_HUMAN | 0.3333 |
| MPRI_HUMAN | 0 |
| MSH6_HUMAN | 0.5 |
| MYH9_HUMAN | 0 |
| NU205_HUMAN | 0.6667 |
| NU214_HUMAN | 2 |
| NUMA1_HUMAN | 0 |
| PABP1_HUMAN | 0.8571 |
| PO210_HUMAN | 0.1538 |
| PRKDC_HUMAN | 0.5 |
| PRP8_HUMAN | 0.32 |
| PTBP1_HUMAN | 1.2 |
| PYR1_HUMAN | 0.125 |
| RBM25_HUMAN | 0 |
| RBP56_HUMAN | 1 |
| RIF1_HUMAN | 1 |
| RRP5_HUMAN | 0 |
| RU17_HUMAN | 1 |
| SCRIB_HUMAN | 3 |
| SMCA5_HUMAN | 0 |
| SP16H_HUMAN | 0.2857 |

| Substance | Fold change (+UV/-UV) |
| --- | --- |
| SPTN1_HUMAN | 0 |
| SSRP1_HUMAN | 0 |
| SYEP_HUMAN | 0.6667 |
| SYNM_HUMAN | 1 |
| TBA1B_HUMAN | 0.8182 |
| TCPA_HUMAN | 2 |
| TCPE_HUMAN | 0.3333 |
| TCPG_HUMAN | 4 |
| TCPH_HUMAN | 1.333 |
| TCPZ_HUMAN | 1 |
| TERA_HUMAN | 1.125 |
| TLN1_HUMAN | 0 |
| TPR_HUMAN | 0.6212 |
| U5S1_HUMAN | 0.6 |
| U520_HUMAN | 0.6129 |
| UGGG1_HUMAN | 1 |
| VIME_HUMAN | 0.875 |
| XRCC5_HUMAN | 0.5 |
| XRCC6_HUMAN | 0.3333 |
| YLPM1_HUMAN | 0.6923 |
| ZN207_HUMAN | 1 |
| ZO1_HUMAN | 1 |
